The record followed here is PMC5608556, “Photo-affinity labelling and biochemical analyses identify the target of trypanocidal simplified natural product analogues” (PLoS Neglected Tropical Diseases, 2017).

As usually defined, the EC50 is the concentration at which the effect is half-maximal.

Each structure is given as a SMILES string.

The test system of one test is HeLa. As to the kind of experiment: Toxicity (EC50) in HeLa cells. Format: cell-based. Particulars: Homo sapiens, footnote b, read-out: EC50 values Mammal HeLa. The text has this:
Fig 1 Labelling and detection of B-THP-T target(s). (A) Structures of chamuvarinin and simplified analogues thereof as probes used in this study and their respective toxicity in selected cell lines. Bi-functional compound 3 contains a diazirine (blue) to cross-link the compound to its target and an alkyne handle (red) to which an azide-containing reporter probe can be added. Mono-functional compound 2 contains the diazirine to cross-link to its target but lacks the alkyne handle and cannot be appended with an azide reporter probe. Lead B-THP-T, compound 1, lacks both diazirine and alkyne. The additional functional groups on compounds 2 and 3 are minor alterations, which have little effect on inhibitor potency. (B) Overview of the in vivo pulse-chase photo-affinity labelling procedure. B-THP-T were incubated with live PF T. brucei cells and trafficked to their targets. Following UV-irradiation, only compounds containing a diazirine (i.e. compounds 2 and 3) could cross-link with target proteins. The subsequent “click reaction” appended the conjugated B-THP-T with a reporter probe as long as an alkyne handle was present (i.e. on compound 3). Refer to the experimental section for details. (C) Detection of Cy5.5-tagged proteins following photo-affinity labelling. Proteins were separated by SDS-PAGE and conjugated Cy5.5 was detected at 700 nm. […]

Test [1] deals with T1, FoF1-ATP synthase F1 α-subunit (GFP-PTP tagged) (Trypanosoma brucei brucei, UniProt Q9GS23).
T1 construct: expressed in transfected cells; host or cells: procyclic-form T. brucei strain 29-13, stably transfected with MfeI-linearised pC-F1α-GFP-PTP (recombination into the endogenous gene)
As to the kind of experiment: In vivo photo-affinity labelling of GFP-PTP-tagged F1 α-subunit, Cy5.5 detection. The class given is binding. The conditions noted are these: 50 μM, in vivo pulse-chase, UV 365 nm. As to the method: Fig 7 B-THP-Ts bind to C-terminal GFP-PTP tagged F1 α- and β- subunits. (A) Stably transfected PF T. brucei cells endogenously-expressing F1 α-GFP-PTP or F1 β-GFP-PTP were loaded with MitoTracker Red CMXros (red) and DAPI (blue) and imaged microscopically to determine localisation of GFP-PTP-tagged protein. […] (B) Following in vivo photo-affinity labelling with 50 μM compound 3 or compound 1 (negative control), GFP-PTP-tagged F1 α- and β-subunits were affinity purified and Cy5.5 clicked on. Proteins were separated by SDS-PAGE and a western blot was performed with mouse anti-GFP / anti-mouse-DyLight 800. […]
Pulse-chase in vivo photo-affinity labelling with bi-functional compound 3 (and lead compound 1 as negative control) was performed on cells from both cell lines expressing GFP-PTP-tagged F1 α- or β-subunits. Tagged subunits were immobilised on IgG-sepharose beads, purified, and Cy5.5 fluorescent reporter clicked on, and proteins were detected by western blotting (Fig 7B). […] In trypanosomatids (but not in other organisms) the native α-subunit is expressed as a 63 KDa protein which is then cleaved by an unknown protease to 20 KDa N-terminal and 43 KDa C-terminal domains, both of which remain associated with the FoF1-ATP synthase complex. […]

T1 sequence (Q9GS23 160-584): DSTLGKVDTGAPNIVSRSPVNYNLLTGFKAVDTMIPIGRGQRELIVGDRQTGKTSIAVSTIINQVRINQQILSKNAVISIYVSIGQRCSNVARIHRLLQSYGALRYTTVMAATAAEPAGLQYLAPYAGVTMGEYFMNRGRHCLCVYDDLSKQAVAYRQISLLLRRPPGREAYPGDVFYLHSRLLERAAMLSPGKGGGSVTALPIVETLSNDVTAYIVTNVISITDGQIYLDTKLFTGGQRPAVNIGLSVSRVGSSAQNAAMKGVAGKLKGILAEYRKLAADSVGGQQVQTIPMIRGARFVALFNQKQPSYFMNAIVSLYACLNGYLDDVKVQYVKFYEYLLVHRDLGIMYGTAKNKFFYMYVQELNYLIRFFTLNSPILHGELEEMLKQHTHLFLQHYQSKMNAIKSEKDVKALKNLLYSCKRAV

`C#CCNC(=O)CCC[C@H]1CC2(C[C@@H](Cn3cc([C@@H]4CCC[C@H](CCCCOCc5ccccc5)O4)nn3)O1)N=N2` [Compound 3]: the EC50 in the test with HeLa was determined as 21.3 ± 2 µM. In addition, the “UV-conjugation (Cy5.5 labelling at 700 nm) to F1 α-GFP-PTP” value in test [1] is listed as “can UV-conjugate”.
